The first data set relates to NO production in IFN-γ/LPS-stimulated RAW 264.7 macrophages. As to the kind of experiment: NO suppression (Griess nitrite determination) in IFN-γ/LPS-stimulated RAW 264.7 macrophages. The format is cell-based, murine. The conditions noted are these: 50 µM test concentration; IFN-γ/LPS-stimulated RAW 264.7 cells; 50 µM. Here is the method:
The synthesized compounds were screened for NO suppression activity in IFN-γ/LPS-stimulated RAW 264.7 macrophages at a 50 µM test concentration. […] The IC50 values of the fifty-seven bioactive compounds were determined and compared to that of the positive control, curcumin. An MTT assay was also carried out to confirm that NO inhibition was not due to cytotoxicity. […] The complete bioassay results of all the compounds are provided as Table S2 in Supplementary Data. RAW 264.7 murine macrophages cells obtained from American Type Culture Collection (ATCC, Rockville, MD, USA) were grown in Dulbecco’s Modified Eagle’s Medium (DMEM) containing 10% fetal bovine serum (FBS) and 1% penicillin/streptomycin in a 95% air and 5% CO2 atmosphere at 37 °C. RAW 264.7 cells at 90%–95% confluency were detached and seeded (50,000 cells/well) into a 96-well culture plate with 50 μL of DMEM and incubated for 24 h. The cells were then stimulated in […] of LPS (Escherichia coli, serotype 0111:B4) and 1 ng/ml of interferon-gamma (IFN-γ) in the presence or absence of test compounds for 17 h. Nitrite concentration was then determined by Griess assay by reacting 50 μL of cell culture supernatant with 50 μL of Griess reagent (1% sulfanilamide and 0.1% N-(1-naphthyl)ethylenediamine dihydrochloride in 2.5% phosphoric acid) at room temperature. The optical density was measured at 550 nm after 5 min of incubation at room temperature with a microplate reader.
For `O=C(/C=C(O)/C=C/c1ccccc1)c1ccccc1O` [Compound 1], the “NO Inhibition at 50 µM (%) ± S.E.M” value is reported as 94.7 ± 1.2%.

Consider `O=C(/C=C(O)/C=C/c1cccc(Cl)c1)c1ccccc1O` [Compound 3], for which the “NO Inhibition at 50 µM (%) ± S.E.M” value was determined as 93.0 ± 3.4%.

As for `O=C(/C=C(O)/C=C/c1cccc(Br)c1)c1ccccc1O` [Compound 4], the “NO Inhibition at 50 µM (%) ± S.E.M” value was 88.4 ± 3.2%.

For `COc1ccccc1/C=C/C(O)=C/C(=O)c1ccccc1O` [Compound 5], the “NO Inhibition at 50 µM (%) ± S.E.M” value came out at 91.8 ± 1.5%.

With `COc1cccc(/C=C/C(O)=C/C(=O)c2ccccc2O)c1` [Compound 6], the “NO Inhibition at 50 µM (%) ± S.E.M” value was 81.6 ± 4.0%.

For `COc1ccc(/C=C/C(O)=C/C(=O)c2ccccc2O)cc1OC` [Compound 8], the “NO Inhibition at 50 µM (%) ± S.E.M” value is reported as 94.7 ± 1.7%.

Regarding `COc1cc(/C=C/C(O)=C/C(=O)c2ccccc2O)cc(OC)c1OC` [Compound 9], the “NO Inhibition at 50 µM (%) ± S.E.M” value amounted to 96.6 ± 1.4%.

For `O=C(/C=C(O)/C=C/c1ccco1)c1ccccc1O` [Compound 12], the “NO Inhibition at 50 µM (%) ± S.E.M” value is listed as 82.0 ± 3.2%.

With `O=C(/C=C(O)/C=C/c1cccs1)c1ccccc1O` [Compound 16], the “NO Inhibition at 50 µM (%) ± S.E.M” value is 79.1 ± 4.6%.

`Cc1ccc(/C=C/C(O)=C/C(=O)c2ccccc2O)s1` [Compound 18]: the “NO Inhibition at 50 µM (%) ± S.E.M” value came out at 58.9 ± 5.8%.

With `O=C(/C=C(O)/C=C/c1cccc2ccccc12)c1ccccc1O` [Compound 19], the “NO Inhibition at 50 µM (%) ± S.E.M” value came to 85.8 ± 3.9%.

Still in this data set, the particulars now being: IFN-γ/LPS-stimulated RAW 264.7 cells; read-out: NO Inhibition IC50 (µM) ± S.E.M.
With `COc1cc(/C=C/C(O)=C/C(=O)c2ccccc2O)cc(OC)c1OC` [Compound 9], the IC50 is less than 20 µM.

The same data set, now with this note: Mus musculus, RAW264.7, 50 µM test concentration; IFN-γ/LPS-stimulated RAW 264.7 cells; read-out: NO Inhibition at 50 µM (%) ± S.E.M.
`O=C(/C=C(O)/C=C/c1ccccc1)c1ccccc1O` [Compound 1]: the inhibition at 50 µM was determined as 94.7 ± 1.2%.

With `O=C(/C=C(O)/C=C/c1cccc(Cl)c1)c1ccccc1O` [Compound 3], the inhibition at 50 µM was determined as 93 ± 3.43%.

For `O=C(/C=C(O)/C=C/c1cccc(Br)c1)c1ccccc1O` [Compound 4], the inhibition at 50 µM is 88.4 ± 3.21%.

Regarding `COc1ccccc1/C=C/C(O)=C/C(=O)c1ccccc1O` [Compound 5], the inhibition at 50 µM was found to be 91.8 ± 1.49%.

With `COc1cccc(/C=C/C(O)=C/C(=O)c2ccccc2O)c1` [Compound 6], the inhibition at 50 µM turned out to be 81.6 ± 3.97%.

For `COc1ccc(/C=C/C(O)=C/C(=O)c2ccccc2O)cc1OC` [Compound 8], the inhibition at 50 µM was determined as 94.7 ± 1.7%.

For `COc1cc(/C=C/C(O)=C/C(=O)c2ccccc2O)cc(OC)c1OC` [Compound 9], the inhibition at 50 µM was 96.6 ± 1.43%.

Take `O=C(/C=C(O)/C=C/c1ccco1)c1ccccc1O` [Compound 12]: the inhibition at 50 µM is 82 ± 3.18%.

`O=C(/C=C(O)/C=C/c1cccs1)c1ccccc1O` [Compound 16]: the inhibition at 50 µM was 79.1 ± 4.58%.

As for `Cc1ccc(/C=C/C(O)=C/C(=O)c2ccccc2O)s1` [Compound 18], the inhibition at 50 µM was determined as 58.9 ± 5.76%.

Consider `O=C(/C=C(O)/C=C/c1cccc2ccccc12)c1ccccc1O` [Compound 19], for which the inhibition at 50 µM was determined as 85.8 ± 3.93%.

Staying with this data set, now noted: Mus musculus, RAW264.7, IFN-γ/LPS-stimulated RAW 264.7 cells; read-out: NO Inhibition IC50 (µM) ± S.E.M.
As to `O=C(/C=C(O)/C=C/c1ccccc1)c1ccccc1O` [Compound 1], the IC50 was 22.6 ± 0.515 µM.

For the compound `O=C(/C=C(O)/C=C/c1cccc(Cl)c1)c1ccccc1O` [Compound 3], the IC50 worked out at 26.7 ± 0.732 µM.

Turning to `O=C(/C=C(O)/C=C/c1cccc(Br)c1)c1ccccc1O` [Compound 4], the IC50 came out at 29.4 ± 0.7 µM.

Consider `COc1ccccc1/C=C/C(O)=C/C(=O)c1ccccc1O` [Compound 5], for which the IC50 was 25.7 ± 0.621 µM.

Consider `COc1cccc(/C=C/C(O)=C/C(=O)c2ccccc2O)c1` [Compound 6], for which the IC50 turned out to be 31.6 ± 0.632 µM.

`COc1ccc(/C=C/C(O)=C/C(=O)c2ccccc2O)cc1OC` [Compound 8]: the IC50 is 24.6 ± 0.73 µM.

Take `COc1cc(/C=C/C(O)=C/C(=O)c2ccccc2O)cc(OC)c1OC` [Compound 9]: the IC50 was determined as 16.6 ± 1.14 µM.

`O=C(/C=C(O)/C=C/c1ccco1)c1ccccc1O` [Compound 12]: the IC50 was found to be 49 ± 1.05 µM.

For `O=C(/C=C(O)/C=C/c1cccs1)c1ccccc1O` [Compound 16], the IC50 stood at 42.64 ± 0.128 µM.

As for `Cc1ccc(/C=C/C(O)=C/C(=O)c2ccccc2O)s1` [Compound 18], the IC50 is 39.6 ± 4.13 µM.

As to `O=C(/C=C(O)/C=C/c1cccc2ccccc12)c1ccccc1O` [Compound 19], the IC50 stood at 23 ± 1.7 µM.

Staying with this data set, now noted: Mus musculus, RAW264.7, Table 6, NO suppression IC50 used for QSAR; unit inferred; read-out: IC50.
Turning to `O=C(/C=C(O)/C=C/c1ccccc1)c1ccccc1O` [Compound 1], the IC50 is 22.6 ± 0.5 µM.

For the compound `O=C(/C=C(O)/C=C/c1cccc(Cl)c1)c1ccccc1O` [Compound 3], the IC50 was 26.7 ± 0.7 µM.

Take `O=C(/C=C(O)/C=C/c1cccc(Br)c1)c1ccccc1O` [Compound 4]: the IC50 was 29.4 ± 0.7 µM.

With `COc1ccccc1/C=C/C(O)=C/C(=O)c1ccccc1O` [Compound 5], the IC50 was 25.7 ± 0.6 µM.

As to `COc1cccc(/C=C/C(O)=C/C(=O)c2ccccc2O)c1` [Compound 6], the IC50 is 31.6 ± 0.6 µM.

For `COc1ccc(/C=C/C(O)=C/C(=O)c2ccccc2O)cc1OC` [Compound 8], the IC50 stood at 24.6 ± 0.7 µM.

On to `COc1cc(/C=C/C(O)=C/C(=O)c2ccccc2O)cc(OC)c1OC` [Compound 9], for which the IC50 was 16.6 ± 1.1 µM.

For the compound `O=C(/C=C(O)/C=C/c1ccco1)c1ccccc1O` [Compound 12], the IC50 is 49 ± 1 µM.

`O=C(/C=C(O)/C=C/c1cccs1)c1ccccc1O` [Compound 16]: the IC50 was found to be 42.6 ± 0.1 µM.

Turning to `Cc1ccc(/C=C/C(O)=C/C(=O)c2ccccc2O)s1` [Compound 18], the IC50 is 39.6 ± 4.1 µM.

With `O=C(/C=C(O)/C=C/c1cccc2ccccc12)c1ccccc1O` [Compound 19], the IC50 was 23 ± 1.7 µM.

Still in this data set, the particulars now being: Mus musculus, RAW264.7, −log IC50 of NO suppression; read-out: pIC50 (converted).
On to `O=C(/C=C(O)/C=C/c1ccccc1)c1ccccc1O` [Compound 1], for which the IC50 is 22.4 µM.

For `O=C(/C=C(O)/C=C/c1cccc(Cl)c1)c1ccccc1O` [Compound 3], the IC50 was 26.9 µM.

On to `O=C(/C=C(O)/C=C/c1cccc(Br)c1)c1ccccc1O` [Compound 4], for which the IC50 was 29.5 µM.

For `COc1ccccc1/C=C/C(O)=C/C(=O)c1ccccc1O` [Compound 5], the IC50 is 25.7 µM.

`COc1cccc(/C=C/C(O)=C/C(=O)c2ccccc2O)c1` [Compound 6]: the IC50 is 31.6 µM.

With `COc1ccc(/C=C/C(O)=C/C(=O)c2ccccc2O)cc1OC` [Compound 8], the IC50 is 24.5 µM.

With `COc1cc(/C=C/C(O)=C/C(=O)c2ccccc2O)cc(OC)c1OC` [Compound 9], the IC50 was 16.6 µM.

Regarding `O=C(/C=C(O)/C=C/c1ccco1)c1ccccc1O` [Compound 12], the IC50 is 49 µM.

Take `O=C(/C=C(O)/C=C/c1cccs1)c1ccccc1O` [Compound 16]: the IC50 is 42.7 µM.

As for `Cc1ccc(/C=C/C(O)=C/C(=O)c2ccccc2O)s1` [Compound 18], the IC50 is 39.8 µM.

In the case of `O=C(/C=C(O)/C=C/c1cccc2ccccc12)c1ccccc1O` [Compound 19], the IC50 is 22.9 µM.

System in the next data set: not listed separately
As to the kind of experiment: Cell cytotoxicity determination (MTT assay). The format is cell-based, murine. To be noted: mouse, RAW 264.7 macrophage cells, RAW 264.7 cells, read-out: Cytotoxicity IC50 (µM) ± S.E.M. Here is the method: The synthesized compounds were screened for NO suppression activity in IFN-γ/LPS-stimulated RAW 264.7 macrophages at a 50 µM test concentration. […] The IC50 values of the fifty-seven bioactive compounds were determined and compared to that of the positive control, curcumin. An MTT assay was also carried out to confirm that NO inhibition was not due to cytotoxicity. […] The complete bioassay results of all the compounds are provided as Table S2 in Supplementary Data.
RAW 264.7 murine macrophages cells obtained from American Type Culture Collection (ATCC, Rockville, MD, USA) were grown in Dulbecco’s Modified Eagle’s Medium (DMEM) containing 10% fetal bovine serum (FBS) and 1% penicillin/streptomycin in a 95% air and 5% CO2 atmosphere at 37 °C.
Supernatant in each well was removed followed by addition of 100 µL DMEM. Subsequently, 20 µL of 3-(4,5-dimethylthiazol-2-yl)-2,5-diphenyltetrazolium bromide (MTT, 5 mg/mL) was then added and the plate was incubated in a 95% air and 5% CO2 atmosphere at 37 °C for 4 h. The mixture of culture media and MTT in all wells were removed and the purplish formazan crystals formed were dissolved in dimethyl sulfoxide (DMSO) and further incubated for 15 min at room temperature. The color intensity was then measured at 570 nm at room temperature.
With `O=C(/C=C(O)/C=C/c1ccccc1)c1ccccc1O` [Compound 1], the IC50 stood at 56.2 ± 1.1 µM.

Turning to `O=C(/C=C(O)/C=C/c1cccc(Cl)c1)c1ccccc1O` [Compound 3], the IC50 was more than 100 µM.

With `O=C(/C=C(O)/C=C/c1cccc(Br)c1)c1ccccc1O` [Compound 4], the IC50 was more than 100 µM.

On to `COc1ccccc1/C=C/C(O)=C/C(=O)c1ccccc1O` [Compound 5], for which the IC50 is more than 100 µM.

As for `COc1cccc(/C=C/C(O)=C/C(=O)c2ccccc2O)c1` [Compound 6], the IC50 is more than 100 µM.

For `COc1ccc(/C=C/C(O)=C/C(=O)c2ccccc2O)cc1OC` [Compound 8], the IC50 is more than 100 µM.

`COc1cc(/C=C/C(O)=C/C(=O)c2ccccc2O)cc(OC)c1OC` [Compound 9]: the IC50 was more than 100 µM.

With `O=C(/C=C(O)/C=C/c1ccco1)c1ccccc1O` [Compound 12], the IC50 was more than 100 µM.

For `O=C(/C=C(O)/C=C/c1cccs1)c1ccccc1O` [Compound 16], the IC50 was more than 100 µM.

`Cc1ccc(/C=C/C(O)=C/C(=O)c2ccccc2O)s1` [Compound 18]: the IC50 was more than 100 µM.

On to `O=C(/C=C(O)/C=C/c1cccc2ccccc12)c1ccccc1O` [Compound 19], for which the IC50 is more than 100 µM.

The record behind these values is PMC6271425, “Synthesis and Sar Study of Diarylpentanoid Analogues as New Anti-Inflammatory Agents” (Molecules, 2014).
